According to PMC7304243, “Dimeric γ-AApeptides With Potent and Selective Antibacterial Activity” (Frontiers in Chemistry, 2020):
Like-named read-outs stand apart in the source and are kept apart here.

Legend:
MRSA [1] = experiment: Drug resistance study, 20 passages; assay type: cell-based, Staphylococcus aureus
Protocol: Drug resistance has already been recognized as one of the fastest growing threats all over the world. […] The MIC of compound 2 was determined daily, and then the bacteria suspension with half of the MIC was diluted to 10^6 CFU/mL and incubated with compound to test its activity until 20 passages had been reached.
The experiment was carried out by following our previously reported protocol (Su et al., [2017]; Niu et al., [2018]). The study was conducted for 20 passages.

[2] = system: red blood cell (RBC) of mice; experiment: Hemolysis study (HC50); assay type: cell-based
Protocol: Fresh red blood cell (RBC) of mice was collected by centrifuge with the speed of 500 g for 10 mins until the supernatant is clear. Then, the RBC was diluted with PBS for 20-fold. After adding 50 μL PBS in each vial on 96 plates, 1 mg/mL compounds were serial diluted until reaching the lowest concentration 1.9 μg/mL. Diluted RBC was added into each vial and incubated at 37°C for 1 h. Then, plates were centrifuged at 2,301 g (3,500 rpm) for 10 mins. 30 uL supernatant in each vial was added into 100 μL PBS and read Biotek Synergy HT plate reader at 540 nm. The hemolytic activity was calculated by the formula % hemolysis = (Abssample-AbsPBS) / (AbsTriton-AbsPBS) × 100%. 1% Triton X-100 were used as the positive control and 1 × PBS buffer was used as the negative control.

[3] = system: vancomycin-resistant E. faecalis (VRE, ATCC 700802); assay type: cell-based; conditions: lowest concentration that completely inhibits growth, repeated three times
Protocol: (§1) Having obtained all compounds, their antibacterial efficacy was subsequently evaluated by measuring the minimum inhibitory concentration (MIC). Three significant resistant bacteria, including methicillin-resistant Staphylococcus aureus (MRSA) (ATCC 33591), Staphylococcus epidermidis (MRSE) (RP62A), and vancomycin-resistant E. faecalis (VRE) (ATCC 700802), were chosen for our studies. Meanwhile, hemolytic activity (HC50) was also measured to assess the selectivity of these compounds toward bacteria and blood cells. […] Importantly, HC50 of almost all compounds are equal or more than 250 μg/mL. […] This is consistent with our previous findings that significant hydrophobicity, particularly two long alkyl tails, could form hydrophobic clusters that prevent the formation of amphipathic structures necessary for antimicrobial activity (Li et al., [2014b]; Singh et al., [2018]). […] MICs of 10–14 unveiled that proper bulky hydrophobic groups were beneficial in the design of bactericide. These five compounds have the same (3r,5r,7r)-1-methyladamantane side chain but different tails, including C9, as well as C11 alkyl chain, ethylbenzene, and (3r,5r,7r)-1-methyladamantane. Among them, 10, which had no tail, was the best toward MRSA and MRSE, with the MICs of 5 μg/mL and 2 μg/mL respectively. […] Compounds 7 and 8 also shared a similar trend. It appears that compounds with bulky groups have better activity, due to the lager molecular volume or shorter molecular length of these bulky groups. Therefore, the selection of proper hydrophobic bulky groups when designing HDP-mimicking agents is considerably crucial (Wu et al., [2012]; Teng et al., [2016a]).
(§2) The antimicrobial assay of the compounds was conducted on the following three bacteria strains: methicillin-resistant S.aureus (MRSA, ATCC 33591), methicillin-resistant S. epidermidis (MRSE, RP62A), and vancomycin-resistant E. faecalis (VRE, ATCC 700802). The procedures were followed as reported previously. […] All measurements were repeated at least three times with duplicates each time.

[4] = system: methicillin-resistant S. aureus (MRSA, ATCC 33591); assay type: cell-based, Staphylococcus aureus; conditions: lowest concentration that completely inhibits growth, repeated three times
Protocol: as §1, §2

[5] = system: methicillin-resistant S. epidermidis (MRSE, RP62A); assay type: cell-based, Staphylococcus epidermidis; conditions: lowest concentration that completely inhibits growth, repeated three times
Protocol: as §1, §2

MRSA [6] = experiment: Time-kill kinetics; assay type: cell-based, Staphylococcus aureus
Protocol: Time-kill kinetic study of compound 2 were investigated. After being incubated from one colony in 4 mL TSB medium overnight at 37 °C while shaking, MRSA was diluted 2,500 times to another fresh 4 mL TSB solution and grew for 6~8 h to mid-logarithmic phase. Suspension [10^6 colony-forming units per milliliter (CFU/mL) according to the read of OD value] was made and then incubated with different concentration of 2 at 37°C for 10 min, 30 min, 60 min, 120 min respectively. The MRSA and drug mixture were diluted 10^2-fold and spread on the TSB agar plates. These plates were incubated at 37°C overnight. The numbers of colonies on each plate were transferred to lg[CFU/mL] and plotted against the incubation time. The experiment was repeated three times with duplicates each time.

MRSA [7] = experiment: Membrane depolarization study, DiSC3(5); assay type: cell-based, Staphylococcus aureus; conditions: MRSA 10^6 CFU/mL, 1 μM DiSC3(5), compound added after 30 min, ex 622 nm / em 670 nm
Excerpt: HDPs are known to act on the bacterial membrane. As the mimics of HDPs, compounds 1–14 were also expected to kill bacteria through disintegrating the bacterial cell membrane. To this end, 3, 3′- Dipropylthiadicarbocyanine iodide [DiSC3(5)] was used as a fluorogenic probe to detect and measure changes in transmembrane potential. Briefly, fluorescence intensity is very weak when it accumulates on hyperpolarized membranes due to their self-quenching (Niu et al., [2018]). […] This method was used to initially determine the bacterial membrane permeability caused by the compound 2.
Mid log phase MRSA bacteria solution was obtained as above. Then, cells were collected and washed with 5 mM HEPES and 5 mM glucose respectively. 5 mM HEPES:5 mM glucose:100 mM KCl = 1:1:1 was used to resuspended bacteria cells (10^6 CFU/mL). Following that, 200 μL of bacterial suspension and 1 μM DiSC3(5) were included in a 96-well plate, and the fluorescence of the suspension was monitored at room temperature for 30 min at excitation wavelength of 622 nm and emission wavelength of 670 nm. After 30 min, compound 2 was added to the wells and the increased potential was monitored. The experiment was repeated three times with duplicates each time.

MRSA [8] = experiment: Fluorescence microscopy, DAPI and PI; assay type: cell-based, Staphylococcus aureus; conditions: 6 μg/mL, 2 h
Protocol: Experiments of fluorescent microscopy is also a broadly used method to determine the integrity of bacteria membrane. Propidium iodide (PI) and 4′,6-diamidino-2-henylindole (DAPI) are commercially available dyes that stain dead or injured cells with compromised membrane and all cells irrespective of their viability, respectively. The efficacy of compound 2 to interrupt the bacterial membrane was evaluated by these two dyes.
Fluorescent dyes propidium iodide (PI) and 4′,6′-diamidino-2-phenylindole dihydrochloride (DAPI) can be used to distinguish the viable cell from the dead cells. After obtaining the mid-logarithmic phase bacteria solution as above, the bacteria solution was diluted 100 times and mixed with compound 2 at the concentration of 6 μg/mL. Then the mixture was incubated 2 h and centrifuged at 1,690 g (3,000 rpm) for 15 min at 4°C to harvest the cells. After washing with PBS for 3 times, PI (5 μg/mL) and DAPI (10 μg/mL) was used to dye cells 20 min respectively. Controls were carried out without compounds. The bacterial cells were then visualized and analyzed by employing the LEICA DM 2000 optical microscope with an oil-immersion objective (40 ×). The experiment was repeated three times with duplicates each time.

MRSA [9] = experiment: TEM study; assay type: cell-based, Staphylococcus aureus; conditions: MRSA 10^6 CFU/mL, 6 μg/mL, 2 h
Protocol: Transmission electron microscopy (TEM) is a straightforward method to visualize the interruptive effect of compounds on the membrane of bacteria. Mid log phase MRSA without the treatment of compound 2 had intact membrane (Figure 5A).
After being incubated to mid log phase, MRSA(10^6 CFU/mL) was mixed with 6 μg/mL compound 2 for 2 h. Then the bacteria cells were collected and washed with PBS and DI water. Following that, bacteria was resuspended in deionized water. Control bacterial samples were obtained without adding drugs. Above samples were applied to TEM grids by 5 μL bacteria solution, and the grids were allowed to dry in vacuum oven at the temperature of 45°C for 45 seconds. After being dried, TEM images were obtained on a FEI Morgagni 268D TEM with an Olympus MegaView III camera at 60 kV on the microscope. The microscope used AnalySiS software to run the camera.

[10] = mouse RBC in PBS, 37°C, 1 h, absorbance 540 nm, 1% Triton X-100 positive control

Row | Molecule | Hemolysis (HC50) [2, 10] | MIC VRE [3] | MIC MRSA [4] | MIC MRSE [5] | further results
1 | CCn1cc(C(=O)O)c(=O)c2cc(F)c(N3CCNCC3)cc21 [norfloxacin, reference compound] |  |  |  |  | Increase of MIC after 20 passages (MRSA [1]; 20 passages): 10 fold
2 | CCCCCCCCCCCCCC(=O)N(CC(=O)Nc1ccc(NC(=O)CN(C[C@@H](N)CCCCN)C(=O)CCCCCCCCCCCCC)cc1)C[C@@H](N)CCCCN [Compound 4, N,N'-((1,4-phenylenebis(azanediyl))bis(2-oxoethane-2,1-diyl))bis(N-(2,6-diaminohexyl)tetradecanamide)] | >250 µg/mL | >25 µg/mL | >25 µg/mL | >25 µg/mL | 
3 | N-(2-(2-((1s,3s)-adamantan-1-yl)acetamido)-6-aminohexyl)-N-(2-((4-(2-(N-(2-(2-((3r,5r,7r)-adamantan-1-yl)acetamido)-6-aminohexyl) decanamido) acetamido) phenyl) amin)−2-oxoethyl)decanamide [Compound 7] |  | 20 µg/mL | 10 µg/mL | 2 µg/mL | Hemolysis (HC50) [2]: 250 µg/mL
4 | CCCCCCCCCCCCCCCC(=O)N(CC(=O)Nc1ccc(NC(=O)CN(C[C@@H](N)CCCCN)C(=O)CCCCCCCCCCCCCCC)cc1)C[C@@H](N)CCCCN [Compound 5, N,N'-((1,4-phenylenebis(azanediyl))bis(2-oxoethane-2,1-diyl))bis(N-(2,6-diaminohexyl)palmitamide)] | >250 µg/mL | >25 µg/mL | >25 µg/mL | >25 µg/mL | 
5 | CCCCCCCCCC(=O)N[C@@H](CCCCN)CN(CC(=O)Nc1ccc(NC(=O)CN(C[C@H](CCCCN)NC(=O)CCCCCCCCC)C(=O)CC23CC4CC(CC(C4)C2)C3)cc1)C(=O)CC12CC3CC(CC(C3)C1)C2 [Compound 11, N,N'-((((1,4-phenylenebis(azanediyl))bis(2-oxoethane-2,1-diyl))bis ((2-((3r,5r,7r)-adamantan-1-yl)acetyl)azanediyl))bis(6-aminohexane-1,2-diyl))bis(decanamide)] | >250 µg/mL | >25 µg/mL | >25 µg/mL | >25 µg/mL | 
6 | CCCCCCCCCC(=O)N(CC(=O)Nc1ccc(NC(=O)CN(C[C@@H](N)CCCCN)C(=O)CCCCCCCCC)cc1)C[C@@H](N)CCCCN [Compound 2, N,N'-((1,4-phenylenebis(azanediyl))bis(2-oxoethane-2,1-diyl))bis(N-(2,6-diaminohexyl)decanamide)] |  |  |  |  | Time-kill result at 6 μg/mL (MRSA [6]; MRSA 10^6 CFU/mL, 6 μg/mL, 37°C, up to 120 min): still colonies after 120 mins; Time in which all bacteria were eradicated (MRSA [6]; MRSA 10^6 CFU/mL, 12 μg/mL, 37°C): ≤ 120 min; Time in which all bacteria were eradicated (MRSA [6]; MRSA 10^6 CFU/mL, 24 μg/mL, 37°C): ≤ 120 min; Time to eradicate MRSA (MRSA [6]; abstract statement, concentration not given): ≤ 2 h; DiSC3(5) fluorescence intensity after adding compound (MRSA [7]): fluorescence intensity increased dramatically; DAPI / PI staining of treated MRSA (MRSA [8]): fluorescence could be detected in both channels; Change of MIC values after 20 passages (MRSA [1]; 20 passages at half of the MIC): almost unchanged; TEM observation of treated MRSA (MRSA [9]): large amount of cell debris can be detected
